“Also recorded” adds a separate entry of the source.
Tests used:
[1] = tested on: HIV-1 strain Ada-MR5; assay: HIV-1 p24 production in infected activated PBMCs (ELISA); type: cell-based; details: stimulated PBMCs, supernatant 6 days post-infection, increasing concentrations
Excerpt: FIG. 1. Potency of quinoline derivatives to inhibit HIV-1 production in PBMC- and macrophages-infected cells. […] Each point represents 6 donors. B) HIV-1 strain YU2 was used to infect triplicate of monocyte derived-macrophages from different donors in the absence or presence of increasing concentrations of Compound 22. […] Each point represents 8 donors.
Buffy coats from HIV-negative individuals were obtained from the local blood donation center in Zurich, Switzerland (http://www.blutspendezurich.ch/) and Centre de transfusion sanguine Montpellier. Human peripheral blood mononuclear cells (PBMCs) were isolated by Ficoll (Axis-Shield PoC AS) gradient centrifugation. The cells have then been cultivated at 37° C., 5% CO2 to a density of 1×10^6 cells/mL in RPMI Glutamax medium (Life Technologies Ref 61870-010) supplemented with 10% fetal calf serum (FCS) (Thermo Fischer Ref SV30160.03), 1000 U/mL of IL2 (Peprotech Ref 200-02) and 5 μg/mL of PHA (Roche Ref 1249738) for activation. Three days later, cells have been pooled and resuspended to a density of 1×10^6 cells/mL in RPMI Glutamax medium supplemented with 10% fetal calf serum (FCS) 1000 U/mL of IL-2 for infection. HIV-1 infection has been performed with 10 μg of Ada-M R5 HIV strain per mL of cells for 4 hours. […]
Cells were treated with 0.01 μM up to 30 μM and p24 antigen levels were monitored in culture supernatant over a 12 day period. […]

[2] = tested on: PBMCs; assay: Lymphocyte populations in treated PBMCs; type: cell-based, human; details: PBMCs under treatment
[3] = tested on: HIV-1 strain YU2; assay: HIV-1 p24 production in infected monocyte derived macrophages (ELISA); type: cell-based; details: Human immunodeficiency virus 1, Primary macrophage; primary macrophages infected with Yu-2, at 0.1 μM; read-out: inhibition levels of virus replication (p24)
Excerpt: FIG. 1. Potency of quinoline derivatives to inhibit HIV-1 production in PBMC- and macrophages-infected cells. […] Each point represents 6 donors. B) HIV-1 strain YU2 was used to infect triplicate of monocyte derived-macrophages from different donors in the absence or presence of increasing concentrations of Compound 22. […] Each point represents 8 donors. To generate monocyte derived macrophages (MDMs), monocytes were isolated using CD14 microbeads (catalog no. 130-050-201; Miltenyi) and cultured in X-VIVO10 medium (Lonza) supplemented with GM-CSF 1000 U/ml and M-CSF 100 ng/ml for 6 days. Monocytes were seeded at a cell count of 50,000 cells per well in a 96 well plate. After 6 days medium was replaced with X-VIVO10 w/o Cytokines. After 2 days Macrophages were treated with Compound 22 and/or its N-glucuronide metabolite o/n and next day infected with Yu-2 virus for 6 hrs, washed with PBS and cultured in medium containing the compounds for 12 days. Supernatant for p24 Elisa was collected 2 times a week. Cells were treated with 0.01 μM up to 30 μM and p24 antigen levels were monitored in culture supernatant over a 12 day period. Cell culture supernatant HIV p24 titration was performed by ELISA with Ingen Innotest kit (Ingen Ref 80564) according to the manufacturer's instructions.

[4] = tested on: HIV-1 genome (YU2); assay: Deep sequencing of virus from treated infected primary macrophages and after amplification in PBMCs; type: cell-based; details: deep sequencing across HIV-1 genome, treated vs untreated samples
Excerpt: To test for emergence and/or selection of mutations associated with Compound 22 treatment, we applied a deep sequencing approach for sensitive detection of low-frequency viral variants across the entire HIV-1 genome. Viruses derived from treated and untreated infected primary macrophages of 4 different donors were sequenced and reads not aligning to human genome were aligned to YU2 sequence using gsnap, as detailed in Wu et al. (Fast and SNP-tolerant detection of complex variants and splicing in short reads. Bioinformatics 26, 873-881 (2010)).
To ascertain that amplification of viruses from treated samples will not mutate when amplified in PBMCs, they were sequenced following amplification with or without drug pressure.

[5] = tested on: primary macrophages; assay: Cell viability of treated primary macrophages; type: cell-based, human; details: macrophages under treatment (data not shown)
Method: To generate monocyte derived macrophages (MDMs), monocytes were isolated using CD14 microbeads (catalog no. 130-050-201; Miltenyi) and cultured in X-VIVO10 medium (Lonza) supplemented with GM-CSF 1000 U/ml and M-CSF 100 ng/ml for 6 days. Monocytes were seeded at a cell count of 50,000 cells per well in a 96 well plate. After 6 days medium was replaced with X-VIVO10 w/o Cytokines. After 2 days Macrophages were treated with Compound 22 and/or its N-glucuronide metabolite o/n and next day infected with Yu-2 virus for 6 hrs, washed with PBS and cultured in medium containing the compounds for 12 days. Supernatant for p24 Elisa was collected 2 times a week.

[6] = tested on: HIV RNA splicing; assay: Sequence capture and 454 pyrosequencing of HIV RNA in infected PBMCs; type: cell-based, HIV-1
Method: To test whether Compound 22 influences the splicing of HIV RNA in infected cells, an array-based sequence capture was performed using a customized library probes targeting HIV sequences to get rid of cellular RNA. The probes were used to capture cDNAs prepared from infected treated and untreated PBMCs. After double capture, libraries were prepared and sequenced using 454 pyrosequencing (according to GS junior method manual). The average size of the reads around 400 bp allowed unambiguous assembly of viral genome from untreated sample (after 3 and 6 days of infection) using reads that were not mapped to human genome (hg19). All sequencing data were analysed using gsnap, as detailed in Wu et al. (Fast and SNP-tolerant detection of complex variants and splicing in short reads. Bioinformatics 26, 873-881 (2010)).

[7] = tested on: HIV-1 strains (clade B, clade C and recombinants clades); assay: p24 inhibition in PBMCs infected with different HIV-1 strains (patient isolates); type: cell-based; details: 5 μM, 6 days pi, subtype B, C and recombinant viruses
Method: FIG. 2. HIV p24 inhibition of Compound 22 from different HIV-1 strains. A) Different HIV-1 strains (clade B, clade C and recombinants clades) were used to infect PBMCs from three different donors in the absence of presence of 5 μM of Compound 22. Supernatant was harvested 6 days pi and viral capsid protein p24 antigen was quantitated using standard ELISA protocol.

**Q.** `FC(F)(F)Oc1ccc(Nc2ccc3cccc(Cl)c3n2)cc1` [Compound 22, 8-chloro-N-(4-(trifluoromethoxy)phenyl)quinolin-2-amine] was tested. Which “inhibition of HIV-1 replication (p24 antigen)” value [1] did it give?
**A.** dose dependent inhibition

**Q.** And the “populations of lymphocytes present in PBMCs” value [2]?
**A.** did not alter

**Q.** And the inhibition at 0.1 µM [3]?
**A.** ≤ 90%

**Q.** What about the “selection of specific viral mutations” value [4] of the same compound?
**A.** does not select for specific mutations; also recorded: unlikely to select for specific viral mutations

**Q.** And the “selection of specific viral mutations” value ([4]; listed as compound 22)?
**A.** do not select for HIV specific mutations

**Q.** And the cell viability [5]?
**A.** not decreased

**Q.** What about the “effect on spliced HIV RNA” value [6] of the same compound?
**A.** favours spliced HIV RNA

**Q.** What about the “coverage of viral genome (number of reads)” value ([6]; 3 days post infection) of the same compound?
**A.** 4149 reads

**Q.** And the “reads corresponding to splice junctions” value ([6]; 3 days post-infection)?
**A.** 17.4%

**Q.** What about the number of reads ([6]; 6 days post-infection) of the same compound?
**A.** 20 585

**Q.** And the “reads corresponding to splice junctions” value ([6]; 6 days post-infection)?
**A.** 13.3%

**Q.** What about the “inhibitory effect on HIV-1 subtypes (p24)” value [7] of the same compound?
**A.** strong inhibitory effect

— patent publication US10806729B2, “Quinoline derivatives for use in the treatment or prevention of viral infection” (ABIVAX, priority 2015, dated 2020)
